The text below walks through data of publication PMC8781450, “Isoquinoline Alkaloids as Protein Tyrosine Phosphatase Inhibitors from a Deep-Sea-Derived Fungus Aspergillus puniceus” (Marine Drugs, 2022).

Molecules are shown by their SMILES. Values after ≈ are worked out from the molar mass of the structure shown. Like-named read-outs stand apart in the source and are kept apart here. Bounds are passed on as bounds.

In one data set the target is T1, CD45 (Homo sapiens, UniProt P08575).
T1 sequence (P08575 26-1306): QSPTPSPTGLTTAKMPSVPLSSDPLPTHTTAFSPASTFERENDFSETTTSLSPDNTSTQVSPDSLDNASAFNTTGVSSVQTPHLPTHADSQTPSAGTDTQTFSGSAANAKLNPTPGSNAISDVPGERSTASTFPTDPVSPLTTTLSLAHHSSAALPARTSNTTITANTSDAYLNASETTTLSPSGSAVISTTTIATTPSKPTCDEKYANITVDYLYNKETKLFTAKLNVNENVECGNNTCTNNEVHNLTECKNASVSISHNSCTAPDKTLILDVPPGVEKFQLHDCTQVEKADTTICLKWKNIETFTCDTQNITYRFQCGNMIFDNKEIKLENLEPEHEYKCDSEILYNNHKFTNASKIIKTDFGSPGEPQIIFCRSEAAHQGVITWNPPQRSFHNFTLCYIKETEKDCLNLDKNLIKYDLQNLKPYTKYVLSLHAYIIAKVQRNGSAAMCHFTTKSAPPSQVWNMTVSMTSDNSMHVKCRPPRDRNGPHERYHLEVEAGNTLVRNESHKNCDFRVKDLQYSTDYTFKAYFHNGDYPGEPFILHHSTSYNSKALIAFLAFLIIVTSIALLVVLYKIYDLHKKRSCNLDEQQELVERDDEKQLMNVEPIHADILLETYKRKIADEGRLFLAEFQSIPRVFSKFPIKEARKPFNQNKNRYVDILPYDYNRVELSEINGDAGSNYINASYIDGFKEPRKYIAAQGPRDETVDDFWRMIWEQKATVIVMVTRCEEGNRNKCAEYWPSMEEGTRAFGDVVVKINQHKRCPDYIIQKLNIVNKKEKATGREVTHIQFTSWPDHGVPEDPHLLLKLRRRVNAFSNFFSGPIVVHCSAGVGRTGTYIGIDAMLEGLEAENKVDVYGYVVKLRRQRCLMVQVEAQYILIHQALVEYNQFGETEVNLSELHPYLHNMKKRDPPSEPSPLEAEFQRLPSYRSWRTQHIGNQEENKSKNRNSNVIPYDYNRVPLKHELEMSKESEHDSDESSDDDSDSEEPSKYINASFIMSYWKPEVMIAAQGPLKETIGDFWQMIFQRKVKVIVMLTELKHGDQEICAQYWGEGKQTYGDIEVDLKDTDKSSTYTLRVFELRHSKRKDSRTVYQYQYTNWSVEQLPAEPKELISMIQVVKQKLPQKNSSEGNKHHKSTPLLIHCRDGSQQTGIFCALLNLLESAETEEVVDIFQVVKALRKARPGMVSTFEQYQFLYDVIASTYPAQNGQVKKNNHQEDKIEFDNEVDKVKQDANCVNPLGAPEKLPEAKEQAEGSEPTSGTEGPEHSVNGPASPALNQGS
Description: Protein phosphatase inhibition assay, CD45.

Another data set has as its target LAR (Homo sapiens, UniProt P10586). Description: Protein phosphatase inhibition assay, LAR.
Another data set concerns the target SHP1 (Homo sapiens, UniProt P29350). Description: Protein phosphatase inhibition assay, SHP1.
A further data set deals with T2, PTP1B (Homo sapiens, UniProt P18031).
T2 sequence (P18031 1-435): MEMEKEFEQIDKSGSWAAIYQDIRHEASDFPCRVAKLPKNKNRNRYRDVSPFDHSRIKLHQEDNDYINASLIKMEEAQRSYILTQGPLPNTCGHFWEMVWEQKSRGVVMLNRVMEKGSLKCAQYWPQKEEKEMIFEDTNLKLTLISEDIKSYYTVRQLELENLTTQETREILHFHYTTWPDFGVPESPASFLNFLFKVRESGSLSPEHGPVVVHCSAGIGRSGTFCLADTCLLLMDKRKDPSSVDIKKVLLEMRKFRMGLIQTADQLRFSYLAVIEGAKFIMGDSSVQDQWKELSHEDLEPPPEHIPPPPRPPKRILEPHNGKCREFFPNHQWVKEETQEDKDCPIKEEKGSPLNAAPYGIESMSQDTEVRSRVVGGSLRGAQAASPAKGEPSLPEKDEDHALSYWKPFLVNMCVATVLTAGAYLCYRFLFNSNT
Put plainly: Protein phosphatase inhibition assay, PTP1B.

The target of a further data set is T3, TCPTP (Homo sapiens, UniProt P17706).
T3 sequence (P17706 1-415): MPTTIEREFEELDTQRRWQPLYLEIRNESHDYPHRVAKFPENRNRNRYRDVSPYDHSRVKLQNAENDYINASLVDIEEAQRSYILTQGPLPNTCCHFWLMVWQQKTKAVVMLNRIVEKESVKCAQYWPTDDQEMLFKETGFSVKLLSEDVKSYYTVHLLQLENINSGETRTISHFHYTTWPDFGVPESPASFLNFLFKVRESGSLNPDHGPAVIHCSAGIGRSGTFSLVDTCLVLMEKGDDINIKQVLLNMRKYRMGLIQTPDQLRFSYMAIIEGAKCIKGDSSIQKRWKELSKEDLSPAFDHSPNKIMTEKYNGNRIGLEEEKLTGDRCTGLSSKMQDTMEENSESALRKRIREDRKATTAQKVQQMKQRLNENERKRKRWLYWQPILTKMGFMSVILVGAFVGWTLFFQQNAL
Description: Protein phosphatase inhibition assay, TCPTP.

A short description of data set [1]: Cytotoxicity by CCK-8 method. Format: cell-based. As to conditions: human, H1975 lung adenocarcinoma cells, read-out: Cytotoxicity (IC50) H1975 Cell (after 24 h). The procedure: Cytotoxic activity was evaluated using human lung adenocarcinoma cell line H1975 by CCK-8 method. Briefly, each of the test compounds was dissolved in DMSO and further diluted to give final concentrations of 80, 40, 20, 10, 5, 2.5, and 1.25 µg/mL, respectively. H1975 cells (5 × 10^3 cells/plate) were seeded in 96-well plates and treated with compounds at the indicated concentration for 24 h, and then 10 μL CCK-8 reagent was added to each well, and the plates were incubated at 37 °C for another 4 h. Next, the optical density was measured at a wavelength of 450 nm with the Bio-Rad (Hercules, CA, USA) microplate reader. Dose–response curves were generated, and the IC50 values were calculated from the linear portion of log dose–response curves.

In a further data set the test system is Escherichia coli. Put plainly: Antibacterial 2-fold dilution assay, E. coli. The following applies: 12 h, read-out: MIC, Escherichia coli.
For the next data set, the system named is Staphylococcus aureus. Put plainly: Antibacterial 2-fold dilution assay, S. aureus. The following applies: 12 h, read-out: MIC, Staphylococcus aureus.
The test system of data set [2] is methicillin-resistant S. aureus (MRSA). Description: Antibacterial 2-fold dilution assay, MRSA. As to conditions: Staphylococcus aureus, 12 h, read-out: MIC, methicillin-resistant S. aureus (MRSA).
Description: (§1) Antibacterial activities of 1–14 against E. coli, S. aureus and MRSA were evaluated using the 2-fold dilution assay in 96-microwell plates. Briefly, all the indicator bacteria were cultured on Luria−Bertani (LB) agar plates at 37 °C for 12 h, and then a single colony was picked into LB liquid medium and cultivated on a rotary shaker at 37 °C for 12 h. Then, the bacterial suspensions with LB medium were diluted until the difference of the OD600 values between the bacterial suspensions and the medium was 0.01~0.02. […] The 96-well plates were incubated at 37 °C for 12 h. MIC value was determined as the lowest concentration with no visible bacterial growth. Ampicillin was used as the positive control and DMSO as the negative control. All experiments were performed three times.

Chain of LAR (P10586 30-1907): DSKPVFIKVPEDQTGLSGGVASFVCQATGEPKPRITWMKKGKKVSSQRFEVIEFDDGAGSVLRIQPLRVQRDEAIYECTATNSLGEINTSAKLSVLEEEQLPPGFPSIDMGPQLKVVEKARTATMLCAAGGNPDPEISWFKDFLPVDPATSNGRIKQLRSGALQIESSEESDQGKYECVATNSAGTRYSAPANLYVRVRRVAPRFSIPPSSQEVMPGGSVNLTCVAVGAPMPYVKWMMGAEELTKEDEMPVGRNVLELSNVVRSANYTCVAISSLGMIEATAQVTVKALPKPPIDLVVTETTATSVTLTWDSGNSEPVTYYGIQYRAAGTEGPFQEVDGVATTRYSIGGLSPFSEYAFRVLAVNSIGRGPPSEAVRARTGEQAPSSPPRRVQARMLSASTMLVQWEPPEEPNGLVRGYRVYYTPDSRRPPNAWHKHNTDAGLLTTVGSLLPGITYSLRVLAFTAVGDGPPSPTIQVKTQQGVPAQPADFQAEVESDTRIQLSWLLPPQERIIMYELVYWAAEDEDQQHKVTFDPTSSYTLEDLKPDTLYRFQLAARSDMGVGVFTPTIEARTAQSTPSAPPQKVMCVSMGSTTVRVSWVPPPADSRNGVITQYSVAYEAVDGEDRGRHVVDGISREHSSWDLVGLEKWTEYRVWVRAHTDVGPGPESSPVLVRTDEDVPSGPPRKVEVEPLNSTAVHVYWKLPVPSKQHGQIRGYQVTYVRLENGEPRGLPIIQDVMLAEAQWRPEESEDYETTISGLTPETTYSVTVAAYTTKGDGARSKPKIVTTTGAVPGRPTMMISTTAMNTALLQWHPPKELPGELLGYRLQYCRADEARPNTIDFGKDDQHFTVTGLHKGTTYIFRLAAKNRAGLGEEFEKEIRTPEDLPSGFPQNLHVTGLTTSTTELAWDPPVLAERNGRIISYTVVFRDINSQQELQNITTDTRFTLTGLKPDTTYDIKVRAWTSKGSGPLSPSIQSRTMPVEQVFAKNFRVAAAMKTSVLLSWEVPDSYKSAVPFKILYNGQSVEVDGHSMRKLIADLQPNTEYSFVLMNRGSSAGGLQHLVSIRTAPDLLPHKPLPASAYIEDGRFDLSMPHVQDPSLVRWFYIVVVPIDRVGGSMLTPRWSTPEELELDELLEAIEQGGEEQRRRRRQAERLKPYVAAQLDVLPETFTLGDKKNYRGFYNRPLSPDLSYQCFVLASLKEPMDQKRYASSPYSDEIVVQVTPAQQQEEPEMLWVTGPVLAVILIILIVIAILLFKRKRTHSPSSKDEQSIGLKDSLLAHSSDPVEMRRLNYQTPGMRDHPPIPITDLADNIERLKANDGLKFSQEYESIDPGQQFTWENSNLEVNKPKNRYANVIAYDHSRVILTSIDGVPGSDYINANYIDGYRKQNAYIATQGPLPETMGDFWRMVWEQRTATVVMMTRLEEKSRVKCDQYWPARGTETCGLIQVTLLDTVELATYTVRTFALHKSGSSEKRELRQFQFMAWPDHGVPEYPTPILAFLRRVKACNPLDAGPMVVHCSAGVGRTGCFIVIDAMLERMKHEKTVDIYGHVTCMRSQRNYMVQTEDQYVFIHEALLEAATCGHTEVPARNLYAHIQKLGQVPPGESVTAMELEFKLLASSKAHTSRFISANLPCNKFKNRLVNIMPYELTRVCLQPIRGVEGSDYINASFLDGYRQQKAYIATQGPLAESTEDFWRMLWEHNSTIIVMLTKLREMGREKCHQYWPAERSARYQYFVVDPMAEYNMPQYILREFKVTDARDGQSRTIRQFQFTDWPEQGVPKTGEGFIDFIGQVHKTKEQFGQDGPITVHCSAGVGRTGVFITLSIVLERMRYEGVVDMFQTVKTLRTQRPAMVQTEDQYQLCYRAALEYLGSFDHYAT
Chain of SHP1 (P29350 whole entry): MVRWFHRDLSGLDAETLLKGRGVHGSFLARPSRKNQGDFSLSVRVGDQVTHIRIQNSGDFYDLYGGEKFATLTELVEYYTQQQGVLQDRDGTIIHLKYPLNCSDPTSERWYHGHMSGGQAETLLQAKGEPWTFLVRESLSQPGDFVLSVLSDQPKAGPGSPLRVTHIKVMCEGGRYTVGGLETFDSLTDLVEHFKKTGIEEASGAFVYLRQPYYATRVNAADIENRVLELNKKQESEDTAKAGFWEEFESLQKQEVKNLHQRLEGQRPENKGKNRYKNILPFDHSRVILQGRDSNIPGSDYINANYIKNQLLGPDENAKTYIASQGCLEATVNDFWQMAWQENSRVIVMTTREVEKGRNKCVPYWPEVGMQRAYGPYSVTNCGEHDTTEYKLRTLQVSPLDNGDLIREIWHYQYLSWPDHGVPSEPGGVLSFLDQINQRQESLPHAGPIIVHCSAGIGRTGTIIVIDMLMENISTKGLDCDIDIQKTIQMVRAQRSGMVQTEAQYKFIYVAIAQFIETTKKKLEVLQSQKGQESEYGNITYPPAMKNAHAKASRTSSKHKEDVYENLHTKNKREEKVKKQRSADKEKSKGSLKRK
Description for Escherichia coli: as §1
Description for Staphylococcus aureus: as §1

`CC(=O)c1ccc(NC2=C(Cl)C(=O)c3ccccc3C2=O)cc1` [AACQ, 2-[(4-acetylphenyl)amino]-3-chloronaphthoquinone, reference compound]: on CD45 (read-out: Inhibitory Effect against Phosphatases (IC50) CD45), the IC50 is 0.29 µM.
Take `COc1cc(O)c2cnccc2c1` [Compound 1, 6-methoxy-8-hydroxy-isoquinolin]: the concentration for half-maximal inhibition (IC50) amounted to 100 µM on LAR; 38.3 µM against SHP1; 182 µM on PTP1B; 197 µM on TCPTP; 29.7 µM against CD45. Moreover, the IC50 at 24 h in data set [1] turned out to be 76.2 µM.
For `COc1cc2ccncc2c(O)c1C` [Compound 2, 6-methoxy-7-methyl-8-hydroxy-isoquinolin], the IC50 on LAR, against SHP1, against PTP1B, against TCPTP and on CD45 was over 200 µM each time. Further, in [1], the half-maximal inhibitory concentration (IC50) at 24 h is over 80 µM.
Turning to `COc1cc2ccncc2c(O)c1Cc1c(OC)cc2ccncc2c1O` [Compound 3, Puniceusine C], the concentration for half-maximal inhibition (IC50) on LAR is 21.9 µM; at SHP1, 20.7 µM; against PTP1B it was 64.5 µM; on TCPTP, over 200 µM; on CD45, 8.4 µM. Moreover, in [1], the half-inhibitory concentration (IC50) at 24 h was 71.3 µM.
In the case of `COc1cc2ccncc2c(O)c1Cc1c(OC)cc(O)c2cnccc12` [Compound 4, Puniceusine D], the IC50 at SHP1 is 130 µM; at PTP1B, 150 µM; at TCPTP, over 200 µM; at CD45, 5.6 µM. Further, the concentration for half-maximal inhibition (IC50) at 24 h in data set [1] was 11 µM. Further, in the data set with Escherichia coli, the MIC was determined as 100 µg/mL (≈ 276 µM).
As for `COc1cc2ccncc2c(O)c1Cc1c(OC)c(C)c(O)c2cnccc12` [Compound 5, Puniceusine E], the concentration for half-maximal inhibition (IC50) against LAR was over 200 µM; at SHP1, 145 µM; at PTP1B it was 200 µM; on TCPTP, over 200 µM; at CD45, 103 µM. In addition, the half-inhibitory concentration (IC50) at 24 h in data set [1] was over 80 µM.
For `COc1cc2ccncc2c(O)c1CC(C)C(=O)O` (stereo not drawn) [Compound 6, Puniceusine F], the concentration for half-maximal inhibition (IC50) is over 200 µM against LAR; 200 µM against SHP1; over 200 µM against PTP1B; over 200 µM against TCPTP; over 200 µM at CD45. Further, the IC50 at 24 h in [1] was over 80 µM.
Consider `COc1cc2ccncc2c2c(C)c(O)c(C)cc12` [Compound 7, Puniceusine G], for which the IC50 against LAR, on SHP1, at PTP1B, against TCPTP and at CD45 was over 200 µM throughout. Also, the IC50 at 24 h in data set [1] was over 80 µM.
In the case of `COc1cc2ccncc2c(O)c1Cc1c(O)cc(O)c(OC)c1C(=O)C(C)=O` [Compound 8, Puniceusine H], the IC50 against LAR was over 200 µM; against SHP1 it was 100 µM; on PTP1B it was 180 µM; against TCPTP, over 200 µM; against CD45, 49 µM. Also, the IC50 at 24 h in data set [1] is over 80 µM.
`COc1cc2ccncc2c(O)c1Cc1c(O)cc(O)c2c1[C@@H](C)OC2` [Compound 9, Puniceusine I]: the half-inhibitory concentration (IC50) on LAR is over 200 µM; on SHP1 it was 41.8 µM; against PTP1B it was 68.8 µM; at TCPTP it was 57.7 µM; at CD45 it was 27.2 µM. The IC50 at 24 h in data set [1] was over 80 µM.
As for `CCC(=O)c1c(C)c(O)c(Cc2c(OC)cc3ccncc3c2O)c(O)c1O` [Compound 10, Puniceusine J], the IC50 at LAR was 100 µM; on SHP1, over 200 µM; on PTP1B it was over 200 µM; at TCPTP, over 200 µM; against CD45, 30.8 µM. For the same compound, the IC50 at 24 h in data set [1] is over 80 µM.
In the case of `COc1cc2ccncc2c(O)c1Cc1c(O)c(OC)c2c(c1O)C(=O)O[C@H]2[C@@H](C)O` [Compound 11, Puniceusine K], the IC50 is over 200 µM against LAR; 145 µM against SHP1; 190 µM against PTP1B; over 200 µM against TCPTP; 100 µM on CD45. Besides, the IC50 at 24 h in data set [1] is over 80 µM.
As for `CCc1cc(O)c(Cc2c(OC)cc3ccncc3c2O)c(=O)o1` [Compound 12, Puniceusine L], the IC50 was 150 µM at LAR; 117 µM on SHP1; 170 µM on PTP1B; over 200 µM against TCPTP; 38.5 µM on CD45. Besides, the concentration for half-maximal inhibition (IC50) at 24 h in data set [1] was over 80 µM.
For the compound `CCc1oc(=O)c(Cc2c(OC)cc3ccncc3c2O)c(O)c1C` [Compound 13, Puniceusine M], the half-inhibitory concentration (IC50) was 32.6 µM against LAR; 40.3 µM at SHP1; 37.9 µM against PTP1B; over 200 µM on TCPTP; 11.1 µM at CD45. In addition, in data set [1], the IC50 at 24 h was over 80 µM.
Take `CCCCC(CC)COC(=O)CC[n+]1ccc2cc(OC)c(C)c(O)c2c1` (stereo not drawn) [Compound 14, Puniceusine N]: the half-inhibitory concentration (IC50) on LAR is over 200 µM; against SHP1 it was over 200 µM; on PTP1B it was over 200 µM; against TCPTP it was over 200 µM; on CD45, 200 µM. In addition, the minimal inhibitory concentration (MIC) (in the data set with Staphylococcus aureus; in [2]; with Escherichia coli) was 100 µg/mL each time. Also, in [1], the concentration for half-maximal inhibition (IC50) at 24 h is over 80 µM.
Regarding `[Na+].[Na+].[Na+].[O]=[V]([O-])([O-])[O-]` [Na3VO4, reference compound], the figures for the IC50 at SHP1 (read-out: Inhibitory Effect against Phosphatases (IC50) SHP1) and at TCPTP (read-out: Inhibitory Effect against Phosphatases (IC50) TCPTP) were 4.4 µM and 2.4 µM, respectively.
